The values that follow come from publication PMC9105517, “Biological Activities of Lichen-Derived Monoaromatic Compounds” (Molecules, 2022).

≈ marks a conversion by molar mass, not a printed value. Where two headings read alike, the source gives them in different places. Bounds are passed on as bounds.

Assay [1] concerns the target T1, Saccharomyces cerevisiae α-glucosidase (E.C 3.2.1.20) (Saccharomyces cerevisiae, UniProt P53341).
T1 construct: purchased Sigma Aldrich Co (Saint Louis, MO, USA)
Put plainly: biochemical. How it is done:
The alpha-glucosidase (0.2 U/mL) and substrate (5.0 mM pNPG) were dissolved in 100 mM pH 6.9 sodium phosphate buffer. The inhibitor (50 µL) was preincubated with alpha-glucosidase at 37 °C for 20 min, and the substrate (40 µL) was subsequently added to the reaction mixture. The enzymatic reaction was conducted at 37 °C for 20 min and ended by adding 0.2 M Na2CO3 (130 μL). Enzymatic activity was quantitatively measured at an absorbance of 405 nm (CLARIOstar plus, BMG LABTECH, Ortenberg, Germany). All samples were analyzed in triplicate at five different concentrations around the IC50 values, and the mean values were retained. The following equation was used to calculate the inhibition percentage (%): Inhibition (%) = [1 − (Asample/Acontrol)] × 100.

The next assay deals with alpha-glucosidase. Details: method as in doi:10.1007/s10600-021-03404-z, PMID 33656403, PMID 29968482, PMID 18981604. The settings on record: cited from earlier work.
In a further assay the test system is various microorganisms. Also on record: method as in doi:10.1007/s11101-010-9201-1, PMID 12487331. To be noted: cited from earlier work.
For assay [2], the system named is Staphylococcus aureus. Put plainly: Minimum inhibitory concentration by agar dilution method. It counts as cell-based. To be noted: 37 °C, 16–18 h. Here is the method: The agar well diffusion method was utilized to investigate the antibacterial activity of the isolated compounds on antibiotic-resistant, pathogenic bacteria E. faecium, S. aureus, and A. baumannii. Three bacterial pathogens were cultured in nutrient broth at 37 °C for 18 h. The cultures were diluted with sterile 0.9% NaCl to obtain bacterial solutions of 1.5 × 10^8 CFU/mL. This solution with a volume of 100 μL was spread on a Mueller-Hinton agar plate. Holes with a diameter of 8 mm were punched aseptically to create wells on the surface of the Mueller–Hinton agar. The compounds were dissolved in DMSO. The amount of 50 µg of each compound solution was inserted into the wells. The plates were incubated at 37 °C for 16–18 h and the antibacterial activity of each compound was recorded by measuring the diameters of the inhibition zones surrounding the wells. The determination of the minimum inhibitory concentration of 9a against Staphylococcus aureus was performed by the agar dilution method. Compound 9a was dissolved in DMSO to the final concentration of 1 mg/mL and then diluted with Mueller–Hinton agar (MHA) to the concentration range of 0, 1, 2, 4, 8, 16, 32, 64 μg/mL as the final concentrations in MHA plates. S. aureus was cultured in nutrient broth at 37 °C overnight with shaking. […] The MIC value was recorded as the lowest concentration of 9a that inhibited the growth of S. aureus. […]

The next assay has as its system Acinetobacter baumannii. Put plainly: Agar well diffusion antimicrobial assay. It counts as cell-based. To be noted: 8 mm wells. How it is done:
(§1) The agar well diffusion method was utilized to investigate the antibacterial activity of the isolated compounds on antibiotic-resistant, pathogenic bacteria E. faecium, S. aureus, and A. baumannii. Three bacterial pathogens were cultured in nutrient broth at 37 °C for 18 h. The cultures were diluted with sterile 0.9% NaCl to obtain bacterial solutions of 1.5 × 10^8 CFU/mL. This solution with a volume of 100 μL was spread on a Mueller-Hinton agar plate. Holes with a diameter of 8 mm were punched aseptically to create wells on the surface of the Mueller–Hinton agar. The compounds were dissolved in DMSO. The amount of 50 µg of each compound solution was inserted into the wells. The plates were incubated at 37 °C for 16–18 h and the antibacterial activity of each compound was recorded by measuring the diameters of the inhibition zones surrounding the wells. The determination of the minimum inhibitory concentration of 9a against Staphylococcus aureus was performed by the agar dilution method. Compound 9a was dissolved in DMSO to the final concentration of 1 mg/mL and then diluted with Mueller–Hinton agar (MHA) to the concentration range of 0, 1, 2, 4, 8, 16, 32, 64 μg/mL as the final concentrations in MHA plates. S. aureus was cultured in nutrient broth at 37 °C overnight with shaking. […] 1 μL of the diluted bacterial solution (10^4 CFU) was placed on the surface of the MHA plates and the plates were incubated at 37 °C for 16–18 h. The MIC value was recorded as the lowest concentration of 9a that inhibited the growth of S. aureus. Kanamycin was chosen as the positive control in this experiment, while DMSO was regarded as a control.

The subject of another assay is Enterococcus faecium. Put plainly: Agar well diffusion antimicrobial assay. The class given is cell-based. To be noted: 8 mm wells. Here is the method:
as §1

In assay [3] the test system is Staphylococcus aureus. Put plainly: Agar well diffusion antimicrobial assay. The class given is cell-based. To be noted: 8 mm wells. How it is done: as §1
Assay [4] relates to S. aureus, Bacillus subtilis, Pseudomonas aeruginosa, Candida albicans, Escherichia coli, and Aspergillus niger. Details: method as in PMID 3834834. To be noted: various microorganisms; cited from earlier work.
[5] abbreviates: in vitro, 37 °C, pH 6.9, triplicate, read-out: IC50, alpha-glucosidase inhibitory activity (converted).

T1 sequence (P53341 whole entry): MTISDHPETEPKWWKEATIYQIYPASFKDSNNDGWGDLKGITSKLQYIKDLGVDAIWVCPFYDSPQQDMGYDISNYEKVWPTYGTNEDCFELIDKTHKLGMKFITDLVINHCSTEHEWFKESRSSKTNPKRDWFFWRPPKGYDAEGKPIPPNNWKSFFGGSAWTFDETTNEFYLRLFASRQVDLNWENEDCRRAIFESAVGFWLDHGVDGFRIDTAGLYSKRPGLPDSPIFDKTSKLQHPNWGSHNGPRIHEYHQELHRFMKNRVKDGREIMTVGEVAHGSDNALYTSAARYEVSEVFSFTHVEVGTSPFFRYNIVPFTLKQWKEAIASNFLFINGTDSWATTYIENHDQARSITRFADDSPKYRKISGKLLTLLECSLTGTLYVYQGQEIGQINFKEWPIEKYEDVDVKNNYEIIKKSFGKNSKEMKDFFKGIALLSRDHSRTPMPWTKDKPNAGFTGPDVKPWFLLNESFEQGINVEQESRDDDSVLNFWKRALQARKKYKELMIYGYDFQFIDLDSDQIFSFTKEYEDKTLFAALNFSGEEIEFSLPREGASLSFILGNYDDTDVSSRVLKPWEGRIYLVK

As to `COc1c(O)cc(C(=O)O)cc1O` [Compound 4, 3,5-dihydroxy-4-methoxylbenzoic acid], in assay [1] (setting [5]), the IC50 was 929 µM.

For `Cc1cc(O)c(O)c(O)c1` [Compound 5, 3-hydroxyorcinol], the concentration for half-maximal inhibition (IC50) in assay [1] (setting [5]) was 694 µM.

For `Cc1c(O)cc(C(=O)O)cc1O` [Compound 3, 3,5-dihydroxy-4-methylbenzoic acid], the IC50 in assay [1] is 143 µM.

As for `COC(=O)c1c(C)cc(O)c(C=O)c1O` [Compound 7, methyl hematommate], in assay [1] (setting [5]), the concentration for half-maximal inhibition (IC50) is 294 µM. In addition, the “alpha-glucosidase inhibition (in words)” value in the assay on alpha-glucosidase is “potent activity”.

Turning to `CCOC(=O)c1c(C)cc(O)cc1O` [ethyl orsellinate], the MIC in the assay on various microorganisms was 30 to 500 µg/mL.

Regarding `NC[C@H]1O[C@H](O[C@H]2[C@H](O)[C@@H](O[C@H]3O[C@H](CO)[C@@H](O)[C@H](N)[C@H]3O)[C@H](N)C[C@@H]2N)[C@H](O)[C@@H](O)[C@@H]1O` [kanamycin, reference compound], the minimum inhibitory concentration (MIC) with Staphylococcus aureus [2] is on record as 4 µg/mL (≈ 8.26 µM).

For the compound `COC(=O)c1cc(O)cc(O)c1` [Compound 2, 3,5-dihydroxybenzoate methyl], in assay [1] (setting [5]), the 50% inhibitory concentration (IC50) was 939 µM.

For the compound `CN[C@@H]1[C@@H](O[C@H]2O[C@H](CO)[C@@H](N)[C@H](O)[C@H]2O)OC2C[C@@H](N)[C@@H](O[C@H]3[C@H](O)[C@@H](O)[C@H](N)C[C@@H]3N)OC2[C@@H]1O` (some centres unmarked) [Apramycin, reference compound], the zone of inhibition at 50 µg/mL in the assay with Acinetobacter baumannii is 20 mm; in the assay with Enterococcus faecium, 21 mm; in the assay with Staphylococcus aureus [3], 21 mm.

For the compound `Cc1cc(O)cc(O)c1` [orcinol], the MIC with various microorganisms was 30 to 500 µg/mL.

As for `Cc1cc(O)c(C=O)c(O)c1` [Compound 6, atranol], the IC50 in assay [1] is greater than 1970 µM.

`Cc1c(Br)c(O)c(Br)c(O)c1C(=O)OCC(O)C(O)CO` [Compound 10b, 3,5-dibromo-D-montagnetol]: the IC50 in assay [1] is 301 µM.

For `O=C(O)c1cc(O)cc(O)c1` [Compound 1, 3,5-dihydroxybenzoic acid], the IC50 in assay [1] (setting [5]) is 729 µM.

As to `Cc1cc(O)cc(O)c1C(=O)OCC(O)C(O)CO` [Compound 10, D-montagnetol], the half-maximal inhibitory concentration (IC50) in assay [1] is greater than 1100 µM.

In turn, `COC(=O)c1c(C)c(Br)c(O)c(C)c1O` [Compound 8a, methyl 5-bromo-β-orsellinate] showed an IC50 in assay [1] of 606 µM. The compound further registered a zone of inhibition at 50 µg/mL in the assay on Staphylococcus aureus [3] of 12 mm.

On to `Cc1cc(O)c(Br)c(O)c1C(=O)OCC(O)C(O)CO` [Compound 10a, 3-bromo-D-montagnetol], for which the half-inhibitory concentration (IC50) in assay [1] was 381 µM. This compound gave a zone of inhibition at 50 µg/mL in the assay with Enterococcus faecium of 13 mm.

`COC(=O)c1c(C)c(Br)c(O)c(Br)c1O` [Compound 9a, methyl 3,5-dibromo-orsellinate] had an IC50 in assay [1] of 459 µM. In addition, the zone of inhibition at 50 µg/mL in the assay with Staphylococcus aureus [3] turned out to be 29 mm. Besides, the MIC in the assay with Staphylococcus aureus [2] (read-out: MIC) is 4 µg/mL (≈ 11.8 µM).

In assay [1], `COC(=O)c1c(C)cc(O)c(C)c1O` [Compound 8, methyl β-orsellinate] gave a 50% inhibitory concentration (IC50) greater than 1530 µM. Also, the zone of inhibition at 50 µg/mL in the assay on Acinetobacter baumannii stood at 16 mm; with Enterococcus faecium, 13 mm; in the assay on Staphylococcus aureus [3], 18 mm. Besides, the MIC in the assay on various microorganisms was 30 to 500 µg/mL; in assay [4], 80 to 160 µg/mL. Also, in the assay on alpha-glucosidase, the “alpha-glucosidase inhibition (in words)” value is given as “weak inhibitors”.

Take `COC(=O)c1c(C)cc(O)cc1O` [Compound 9, methyl orsellinate]: the IC50 in assay [1] was greater than 1650 µM. The compound further came in with a zone of inhibition at 50 µg/mL in the assay with Staphylococcus aureus [3] of 13 mm. Besides, the MIC in the assay on various microorganisms was 30 to 500 µg/mL. The “alpha-glucosidase inhibition (in words)” value with alpha-glucosidase is “weak inhibitors”.

Consider cristiferide A, for which, in the assay with alpha-glucosidase, the “alpha-glucosidase inhibition (in words)” value was “potent activity”.
